We go through 29 compounds from ChEMBL document CHEMBL1138457, “Design and synthesis of an orally bioavailable and selective peptide epoxyketone proteasome inhibitor (PR-047)” (J Med Chem, 2009).

A value given as a limit tells only on which side of the number the result lay.

Series [1] is described as follows: Inhibition of chymotrypsin-like activity of human 20S proteasome by spectrofluorimetry.
The nature of series [2]: Inhibition of chymotrypsin-like activity of 20S proteasome in human MOLT4 cells after 1 hr by […]. It counts as cell-based. Conditions: MOLT-4, 1 h. Background: In ATP-based viability assays light output follows the ATP content of the culture.
Series [3] concerns Mus musculus. Nature of the series: Inhibition of chymotrypsin-like activity of 20S proteasome in BALB/c mouse adrenal gland 40 mg/kg, po after 1 hr. The format is functional. More on the design: scale not given: the % may be the effect or the level left.
A short description of series [4]: Cytotoxicity against human MESSA cells assessed as cell viability after 72 hrs by CellTiter-Glo luminescent assay. Conditions: MES-SA. The format is functional, cell-based.
Series [5] in a line: Cytotoxicity against multidrug resistance transporter expressing doxorubicin resistant human MESSA cells assessed as cell viability after 72 hrs by CellTiter-Glo luminescent assay. It counts as functional, cell-based. Conditions: MES-SA.
The nature of series [6]: Chemical stability in simulated intestinal fluid assessed as compound remaining at 4 uM after 15 mins. The format is physicochemical. The conditions noted are these: read-out: Stability.
Series [7] is described as follows: Metabolic stability in mouse liver microsomes assessed as extraction ratio at 1 uM. It counts as ADME, Microsome.
The subject of series [8] is Mus musculus. Nature of the series: Inhibition of chymotrypsin-like activity of 20S proteasome in BALB/c mouse adrenal gland at 20 mg/kg, po after 1 hr. It counts as functional. More on the design: scale not given: the % may be the effect or the level left.

As to `COCC[C@H](NC(=O)c1cc(CN2CCOCC2)on1)C(=O)N[C@@H](Cc1ccccc1)C(=O)N[C@@H](CC(C)C)C(=O)[C@@]1(C)CO1`, the 50% inhibitory concentration (IC50) (usually the concentration needed to halve the response being measured) in series [1] is 19 nM; in series [2] it was 42 nM; in series [4], 24 nM; in series [5] it was 1140 nM. For the same compound, the Activity in the series on Mus musculus [3] was 81%. In series [6], the remaining at 0.25 h, 4 µM was 90%.

As to `CC(C)C[C@H](NC(=O)[C@H]1CCCO1)C(=O)N[C@@H](Cc1ccccc1)C(=O)N[C@@H](CC(C)C)C(=O)[C@@]1(C)CO1`, the concentration for half-maximal inhibition (IC50) in series [1] amounted to 34 nM; in series [2] it was 154 nM; in series [4], 69 nM; in series [5], 110 nM.

In the case of `CC(C)C[C@H](NC(=O)[C@@H]1CCCO1)C(=O)N[C@@H](Cc1ccccc1)C(=O)N[C@@H](CC(C)C)C(=O)[C@@]1(C)CO1`, the 50% inhibitory concentration (IC50) in series [1] was found to be 42 nM; in series [2] it was 180 nM; in series [4], 130 nM; in series [5], 159 nM.

As to `CC(C)C[C@H](NC(=O)c1ccncc1)C(=O)N[C@@H](Cc1ccccc1)C(=O)N[C@@H](CC(C)C)C(=O)[C@@]1(C)CO1`, the half-inhibitory concentration (IC50) is 20 nM in series [1], 55 nM in series [2], 33 nM in series [4] and over 1000 nM in series [5].

Take `CC(C)C[C@H](NC(=O)c1ccn(C)n1)C(=O)N[C@@H](Cc1ccccc1)C(=O)N[C@@H](CC(C)C)C(=O)[C@@]1(C)CO1`: the IC50 in series [1] stood at 76 nM; in series [2], 290 nM; in series [4], 137 nM; in series [5] it was 205 nM.

Regarding `Cc1cc(C(=O)N[C@@H](Cc2cccnc2)C(=O)N[C@@H](Cc2ccccc2)C(=O)N[C@@H](CC(C)C)C(=O)[C@@]2(C)CO2)no1`, the IC50 was 1.6 nM in series [1], 27 nM in series [2], 39 nM in series [4] and 543 nM in series [5]. The Activity with Mus musculus [3] amounted to 70%. Also, the remaining at 0.25 h, 4 µM in series [6] is 90%.

Consider `Cc1cc(NC(=O)N[C@@H](CC(C)C)C(=O)N[C@@H](Cc2ccccc2)C(=O)N[C@@H](CC(C)C)C(=O)[C@@]2(C)CO2)no1`, for which the half-maximal inhibitory concentration (IC50) in series [1] is 13 nM; in series [2], 47 nM; in series [4], 182 nM; in series [5] it was over 1000 nM.

On to `CC(C)C[C@H](NC(=O)c1cc[nH]n1)C(=O)N[C@@H](Cc1ccccc1)C(=O)N[C@@H](CC(C)C)C(=O)[C@@]1(C)CO1`, for which the concentration for half-maximal inhibition (IC50) in series [1] was 36 nM; in series [2] it was 188 nM; in series [4], 109 nM; in series [5] it was over 1000 nM.

As to `CC[C@H](NC(=O)[C@H](COC)NC(=O)c1cc(C)on1)C(=O)N[C@@H](CC(C)C)C(=O)[C@@]1(C)CO1`, the IC50 in series [1] was 54 nM; in series [2] it was 248 nM; in series [4], 92 nM; in series [5], 468 nM. Besides, the remaining at 0.25 h, 4 µM in series [6] was 100%. Also, the hepatic extraction ratio at 1 µM in series [7] is 0.47 dimensionless ratio. In the series on Mus musculus [8], this compound registered an Activity of 90%.

On to `CC(C)C[C@H](NC(=O)[C@H](Cc1ccccc1)NC(=O)[C@H](Cc1cscn1)NC(=O)c1cc(CN2CCOCC2)on1)C(=O)[C@@]1(C)CO1`, for which the IC50 in series [1] was determined as 6.9 nM; in series [2], 59 nM; in series [4], 7.9 nM; in series [5], 841 nM. The Activity in the series with Mus musculus [3] came out at 93%. Moreover, the remaining at 0.25 h, 4 µM in series [6] was 15%.

For the compound `COCc1cc(C(=O)N[C@@H](CC(C)C)C(=O)N[C@@H](Cc2ccccc2)C(=O)N[C@@H](CC(C)C)C(=O)[C@@]2(C)CO2)no1`, the IC50 in series [1] amounted to 1.2 nM; in series [2] it was 8.1 nM; in series [4], 23 nM; in series [5] it was 28 nM.

With `COC[C@H](NC(=O)c1cc(C)on1)C(=O)N[C@@H](CC#N)C(=O)N[C@@H](CC(C)C)C(=O)[C@@]1(C)CO1`, the 50% inhibitory concentration (IC50) amounted to 40 nM in series [1], 91 nM in series [2], 29 nM in series [4] and 941 nM in series [5]. The remaining at 0.25 h, 4 µM in series [6] is 100%. The hepatic extraction ratio at 1 µM in series [7] was 0.28 dimensionless ratio. This compound registered an Activity in the series on Mus musculus [8] of 40%.

In the case of `CC(C)C[C@H](NC(=O)c1cc(C(C)C)on1)C(=O)N[C@@H](Cc1ccccc1)C(=O)N[C@@H](CC(C)C)C(=O)[C@@]1(C)CO1`, the half-inhibitory concentration (IC50) in series [1] stood at 6.3 nM; in series [2], 17 nM; in series [4] it was 63 nM; in series [5] it was 30 nM.

On to `CC(C)C[C@H](NC(=O)[C@H](Cc1ccccc1)NC(=O)CN1CCOCC1)C(=O)[C@@]1(C)CO1`, for which the half-inhibitory concentration (IC50) in series [1], in series [2], in series [4] and in series [5] was over 1000 nM throughout.

`CC(C)C[C@H](NC(=O)c1cnccn1)C(=O)N[C@@H](Cc1ccccc1)C(=O)N[C@@H](CC(C)C)C(=O)[C@@]1(C)CO1`: the IC50 in series [1] was 752 nM; in series [2] it was over 1000 nM; in series [4] it was over 1000 nM; in series [5], over 1000 nM.

Regarding `CC(C)C[C@H](NC(=O)c1nccn1C)C(=O)N[C@@H](Cc1ccccc1)C(=O)N[C@@H](CC(C)C)C(=O)[C@@]1(C)CO1`, the IC50 in series [1] was 122 nM; in series [2], 161 nM; in series [4], 67 nM; in series [5], 164 nM.

Take `CC(C)C[C@H](NC(=O)c1cccs1)C(=O)N[C@@H](Cc1ccccc1)C(=O)N[C@@H](CC(C)C)C(=O)[C@@]1(C)CO1`: the IC50 in series [1] was found to be 10 nM; in series [2] it was 40 nM; in series [4], 34 nM; in series [5], 120 nM.

As for `COC[C@H](NC(=O)c1cc(CN2CCOCC2)on1)C(=O)N[C@@H](Cc1ccccc1)C(=O)N[C@@H](CC(C)C)C(=O)[C@@]1(C)CO1`, the IC50 in series [1] came out at 5.7 nM; in series [2], 26 nM; in series [4] it was 13 nM; in series [5], 147 nM. In the series on Mus musculus [3], this compound had an Activity of 57%. Besides, the remaining at 0.25 h, 4 µM in series [6] was 80%.

Consider `COCC[C@H](NC(=O)c1cc(C)on1)C(=O)N[C@@H](Cc1ccccc1)C(=O)N[C@@H](CC(C)C)C(=O)[C@@]1(C)CO1`, for which the 50% inhibitory concentration (IC50) stood at 26 nM in series [1], 69 nM in series [2], 164 nM in series [4] and 286 nM in series [5]. For the same compound, in the series on Mus musculus [3], the Activity came out at 47%. Also, the remaining at 0.25 h, 4 µM in series [6] is 80%.

On to `CC(C)C[C@H](NC(=O)[C@H](Cc1ccccc1)NC(=O)[C@H](Cc1ccccn1)NC(=O)c1cc(CN2CCOCC2)on1)C(=O)[C@@]1(C)CO1`, for which the IC50 stood at 5.2 nM in series [1], 31 nM in series [2], 11 nM in series [4] and 421 nM in series [5]. The compound also displayed an Activity in the series on Mus musculus [3] of 92%. The remaining at 0.25 h, 4 µM in series [6] was 20%.

In the case of `CC(C)C[C@H](NC(=O)c1ccno1)C(=O)N[C@@H](Cc1ccccc1)C(=O)N[C@@H](CC(C)C)C(=O)[C@@]1(C)CO1`, the IC50 in series [1] worked out at 5.8 nM; in series [2], 65 nM; in series [4] it was 58 nM; in series [5], 82 nM.

Consider `Cc1cc(C(=O)N[C@@H](Cc2ccccn2)C(=O)N[C@@H](Cc2ccccc2)C(=O)N[C@@H](CC(C)C)C(=O)[C@@]2(C)CO2)no1`, for which the IC50 stood at 13 nM in series [1], 78 nM in series [2], 45 nM in series [4] and 219 nM in series [5]. Also, the Activity in the series with Mus musculus [3] is reported as 23%. The remaining at 0.25 h, 4 µM in series [6] was 20%.

`CC(C)C[C@H](NC(=O)c1ncc[nH]1)C(=O)N[C@@H](Cc1ccccc1)C(=O)N[C@@H](CC(C)C)C(=O)[C@@]1(C)CO1`: the IC50 in series [1] was 107 nM; in series [2] it was 271 nM; in series [4] it was 136 nM; in series [5], over 1000 nM.

In the case of `CC(C)C[C@H](NC(=O)[C@H](Cc1ccccc1)NC(=O)[C@H](Cc1ccncc1)NC(=O)c1cc(CN2CCOCC2)on1)C(=O)[C@@]1(C)CO1`, the half-maximal inhibitory concentration (IC50) is 5.1 nM in series [1], 14 nM in series [2], 8.7 nM in series [4] and over 1000 nM in series [5]. This compound registered an Activity with Mus musculus [3] of 96%. Further, in series [6], the remaining at 0.25 h, 4 µM is 60%.

For the compound `Cc1cc(C(=O)N[C@@H](Cc2ccncc2)C(=O)N[C@@H](Cc2ccccc2)C(=O)N[C@@H](CC(C)C)C(=O)[C@@]2(C)CO2)no1`, the IC50 is 2.8 nM in series [1], 8.6 nM in series [2], 8.6 nM in series [4] and 271 nM in series [5]. This compound gave an Activity with Mus musculus [3] of 28%. Besides, the remaining at 0.25 h, 4 µM in series [6] is 90%.

On to `CC(C)C[C@H](NC(=O)c1ccoc1)C(=O)N[C@@H](Cc1ccccc1)C(=O)N[C@@H](CC(C)C)C(=O)[C@@]1(C)CO1`, for which the concentration for half-maximal inhibition (IC50) in series [1] came to 34 nM; in series [2], 116 nM; in series [4], 54 nM; in series [5] it was 125 nM.

With `CC(C)C[C@H](NC(=O)c1ccon1)C(=O)N[C@@H](Cc1ccccc1)C(=O)N[C@@H](CC(C)C)C(=O)[C@@]1(C)CO1`, the concentration for half-maximal inhibition (IC50) in series [1] was determined as 7.4 nM; in series [2], 50 nM; in series [4], 73 nM; in series [5], 123 nM.

For the compound `CC(C)C[C@H](NC(=O)c1cnco1)C(=O)N[C@@H](Cc1ccccc1)C(=O)N[C@@H](CC(C)C)C(=O)[C@@]1(C)CO1`, the 50% inhibitory concentration (IC50) turned out to be 27 nM in series [1], 84 nM in series [2], 159 nM in series [4] and 505 nM in series [5].

Turning to `CC(C)C[C@H](NC(=O)c1ccnnc1)C(=O)N[C@@H](Cc1ccccc1)C(=O)N[C@@H](CC(C)C)C(=O)[C@@]1(C)CO1`, the half-inhibitory concentration (IC50) was 12 nM in series [1], 50 nM in series [2], 18 nM in series [4] and over 1000 nM in series [5].
